Assay: Toxicokinetics after escalating intravenous doses of CKLP1 in beagles
Assay type: in vivo, beagle dog
Design: AUCTlast/Dose: unit not given here
Settings: for Vd / clearance / half-life / λZ range / AUC(0-inf) / AUC(0-t) / C0 / Cmax / RAUC / Tlast / Tmax: beagle, dog, in vivo, iv; for AUCTlast/Dose / Cmax/Dose: male dog
Method: Two beagles (one male and one female) were intravenously injected with escalating doses of CKPL1 (0.05 mg/kg, 0.5 mg/kg, 1.5 mg/kg, 3 mg/kg, and 5 mg/kg) to assess the toxicity of CKLP1. The injection was done through the cephalic vein and CKLP1 was administered in a phosphate buffered saline solution ((0.096% sodium phosphate dibasic, 0.089% sodium dihydrogen orthophosphate monohydrate, 0.83% sodium chloride) pH 6.5±0.1 in sterile water for injection USP). The dosing schedule is shown below in Table 3.
The following parameters and endpoints were evaluated: mortality, clinical observations, body and organ weights, and food consumption. Bioanalytical samples for toxicokinetic parameters (for both CKLP1 and leveromakalim) were collected after each dose level (days 1, 3, 8, 10, and 14) at predose, 1, 3, 6, 8, and 24 hours postdose. Animals were released from the study after completion of the bioanalytical sample collection schedule.
Toxicokinetics (TK) were determined based on the individual exposures for each animal on each sampled study day (days 1, 3, 8, 10, and 14). […] Predose samples had no quantifiable exposure in any animal on any day, with the exception of the female dog on day 10. The predose concentration for the female dog on day 10 was excluded from the TK analysis in order to allow for estimation of the IV C0.

[1] = IV CKLP1 0.05 mg/kg, study day 1
[2] = IV CKLP1 0.5 mg/kg, study day 3
[3] = IV CKLP1 1.5 mg/kg, study day 8

CC1(C)Oc2ccc(C#N)cc2[C@@H](N2CCCC2=O)[C@@H]1OP(=O)(O)O [CKLP1]
Vd (female, 3 mg/kg): 0.099 L/kg | clearance (female, 3 mg/kg): 0.388 mL/min/kg | half-life (female, 3 mg/kg): 2.94 h | λZ range (female, 3 mg/kg): 6 to 24 h | AUC(0-inf) (female, 5 mg/kg): 330000 ng·h/mL | AUC(0-t) (female, 5 mg/kg): 311000 ng·h/mL | C0 (female, 5 mg/kg): 32.2 µg/mL | Cmax (female, 5 mg/kg): 29.3 µg/mL | RAUC (female, 5 mg/kg): 148 | Tlast (female, 5 mg/kg): 24.0 h | Tmax (female, 5 mg/kg): 1 h | Vd (female, 5 mg/kg): 0.131 L/kg | clearance (female, 5 mg/kg): 0.253 mL/min/kg | half-life (female, 5 mg/kg): 5.98 h | λZ range (female, 5 mg/kg): 3 to 24 h | AUCTlast/Dose [1]: 22400 | Cmax/Dose [1]: 4.9e+06 µg/mL | AUCTlast/Dose [2]: 28500 | Cmax/Dose [2]: 5.2e+06 µg/mL | AUCTlast/Dose [3]: 28800 | Cmax/Dose [3]: 5.13e+06 µg/mL | AUCTlast/Dose (IV CKLP1 3 mg/kg, study day 10): 28400 | Cmax/Dose (IV CKLP1 3 mg/kg, study day 10): 4.8e+06 µg/mL | AUCTlast/Dose (IV CKLP1 5 mg/kg, study day 14): 31700 | Cmax/Dose (IV CKLP1 5 mg/kg, study day 14): 4.48e+06 µg/mL | AUC(0-inf) (male, 0.05 mg/kg): 1230 ng·h/mL | AUC(0-t) (male, 0.05 mg/kg): 1120 ng·h/mL | C0 (male, 0.05 mg/kg): 0.301 µg/mL | Cmax (male, 0.05 mg/kg): 0.245 µg/mL | Tlast (male, 0.05 mg/kg): 8.00 h | Tmax (male, 0.05 mg/kg): 1 h | Vd (male, 0.05 mg/kg): 0.131 L/kg | clearance (male, 0.05 mg/kg): 0.678 mL/min/kg | half-life (male, 0.05 mg/kg): 2.23 h | λZ range (male, 0.05 mg/kg): 3 to 8 h | AUC(0-inf) (male, 0.5 mg/kg): 14300 ng·h/mL | AUC(0-t) (male, 0.5 mg/kg): 14300 ng·h/mL | C0 (male, 0.5 mg/kg): 3.58 µg/mL | Cmax (male, 0.5 mg/kg): 2.6 µg/mL | RAUC (male, 0.5 mg/kg): 12.8 | Tlast (male, 0.5 mg/kg): 24.0 h | Tmax (male, 0.5 mg/kg): 1 h | Vd (male, 0.5 mg/kg): 0.143 L/kg | clearance (male, 0.5 mg/kg): 0.583 mL/min/kg | half-life (male, 0.5 mg/kg): 2.84 h | λZ range (male, 0.5 mg/kg): 3 to 24 h | AUC(0-inf) (male, 1.5 mg/kg): 43300 ng·h/mL | AUC(0-t) (male, 1.5 mg/kg): 43200 ng·h/mL | C0 (male, 1.5 mg/kg): 10.4 µg/mL | Cmax (male, 1.5 mg/kg): 7.69 µg/mL | RAUC (male, 1.5 mg/kg): 38.6 | Tlast (male, 1.5 mg/kg): 24.0 h | Tmax (male, 1.5 mg/kg): 1 h | Vd (male, 1.5 mg/kg): 0.146 L/kg | clearance (male, 1.5 mg/kg): 0.578 mL/min/kg | half-life (male, 1.5 mg/kg): 2.91 h | λZ range (male, 1.5 mg/kg): 1 to 24 h | AUC(0-inf) (male, 3 mg/kg): 89000 ng·h/mL | AUC(0-t) (male, 3 mg/kg): 85100 ng·h/mL | C0 (male, 3 mg/kg): 18.5 µg/mL | Cmax (male, 3 mg/kg): 14.4 µg/mL | RAUC (male, 3 mg/kg): 76.0 | Tlast (male, 3 mg/kg): 24.0 h | Tmax (male, 3 mg/kg): 1 h | Vd (male, 3 mg/kg): 0.303 L/kg | clearance (male, 3 mg/kg): 0.562 mL/min/kg | half-life (male, 3 mg/kg): 6.22 h | λZ range (male, 3 mg/kg): 6 to 24 h | AUC(0-inf) (male, 5 mg/kg): 160000 ng·h/mL | AUC(0-t) (male, 5 mg/kg): 159000 ng·h/mL | C0 (male, 5 mg/kg): 25.9 µg/mL | Cmax (male, 5 mg/kg): 22.4 µg/mL | RAUC (male, 5 mg/kg): 142 | Tlast (male, 5 mg/kg): 24.0 h | Tmax (male, 5 mg/kg): 1 h | Vd (male, 5 mg/kg): 0.156 L/kg | clearance (male, 5 mg/kg): 0.522 mL/min/kg | half-life (male, 5 mg/kg): 3.47 h | λZ range (male, 5 mg/kg): 1 to 24 h
